Legend:
[1] = test system: symptoms of primary osteoarthritis (OA) of the knee; assay: 12-week randomized, double-blind, double-dummy, parallel-group comparative study; WOMAC osteoarthritis index (VAS) efficacy; assay type: in vivo, patients (men and nonpregnant women)
Procedure: (§1) The purpose of this study was to compare the safety and efficacy of a topical cream (CellMedics®) containing 0.075% w/w capsaicin and 5% w/w Harpagophytum extract vs. oral diclofenac 50 mg tablets over a 12-week treatment course in relieving the symptoms of primary osteoarthritis (OA) of the knee, in a randomized, double-blind, double-dummy, parallel-group study. Eligible patients included men and nonpregnant women between the ages of 45-75 with symptomatic OA of the knee of at least three months duration. All patients had knee OA as defined by the American College of Rheumatology global functional class I, II, or III. […] Concomitant use of other analgesic medications was prohibited during the study. The protocol was a 12-week, randomized, double-blind, double-dummy, parallel-group comparative study. Patients were assessed at the initial screening visit and those who met the entry criteria discontinued NSAID treatment for a washout period of 3-10 days before the baseline visit. Following the screening and washout periods, each eligible patient attending the baseline visit was assigned a numbered study kit at the clinic. Study kits contained one of 2 randomly assigned treatments: (1) vehicle cream (CellMedics®) containing 0.075% w/w capsaicin and 5% w/w Harpagophytum extract (topical Harpagophytum) plus oral placebo tablet; or (2) diclofenac 50 mg tablet (oral diclofenac) plus a topical placebo cream (vehicle cream with no actives). Patients were instructed to apply a single 3 g measured dose of cream (150 mg of Harpagophytum and 2.25 mg of capsaicin in the active cream) from a metered pump dispenser around the affected knee and take a study tablet orally, 3 times daily for 12 weeks. […] The WOMAC osteoarthritis index, version 3.1 visual analog scale (VAS) was used to assess response to treatment at baseline and after week 12. Patients answered the WOMAC subscales of pain, stiffness, and physical function using a 48 hour recall period. For WOMAC, the VA scales were (best) 0-100 (worst). Safety analyses were conducted on all patients randomized into the trial. At week 12 visits, adverse events (AE) were recorded. The differences between baseline and week 12 were used to analyze changes in WOMAC scores. Statistical significance was assumed at p<0.05. The effect size was calculated by dividing the mean change from baseline with the standard deviation at baseline. Percent improvement was calculated by dividing week 12 change scores by baseline scores.

[2] = test system: patients with primary osteoarthritis (OA) of the knee; assay: Same 12-week study; safety analysis, incidence of drug-related adverse events
Procedure: as §1

[3] = mean change from baseline divided by the standard deviation at baseline, week 12
[4] = mean, WOMAC VA scale (best) 0-100 (worst), 12 weeks, 3 times daily, n = 36
[5] = week 12 change score divided by baseline score
[6] = both, human, in vivo, po, 12 weeks

O=C(O)Cc1ccccc1Nc1c(Cl)cccc1Cl [Oral Diclofenac, diclofenac]
WOMAC Pain, Effect size [1, 3]: 1.04 | WOMAC Physical Function, Effect size [1, 3]: 0.99 | WOMAC Stiffness, Effect size [1, 3]: 0.90 | WOMAC Pain, Baseline - week 12 change score [1, 4]: −22.87 | WOMAC Physical Function, Baseline - week 12 change score [1, 4]: −21.87 | WOMAC Stiffness, Baseline - week 12 change score [1, 4]: −21.65 | WOMAC Pain, % Improvement [1, 5]: 48.77% | WOMAC Physical function, % Improvement [1, 5]: 45.91% | WOMAC Stiffness, % Improvement [1, 5]: 44.86% | Erythema (application site adverse event), number of patients ([2]; 12 weeks, n = 36, oral diclofenac group used placebo cream): One | severity of dry skin at application site ([2]; all cases): mild and transient | Abdominal pain (GI adverse event), number of patients ([2]; both, human, in vivo, 12 weeks): 8 | Constipation (GI adverse event), incidence ([2]; both, human, in vivo, 12 weeks): (8.3%) | Constipation (GI adverse event), number of patients ([2]; both, human, in vivo, 12 weeks): 3 | Diarrhea (GI adverse event), incidence ([2]; both, human, in vivo, 12 weeks): (16.7%) | Diarrhea (GI adverse event), number of patients ([2]; both, human, in vivo, 12 weeks): 6 | Dyspepsia (GI adverse event), incidence ([2]; both, human, in vivo, 12 weeks): (25.0%) | Dyspepsia (GI adverse event), number of patients ([2]; both, human, in vivo, 12 weeks): 9 | Edema (other adverse event), number of patients ([2]; both, human, in vivo, 12 weeks): 3 | Flatulence (GI adverse event), incidence ([2]; both, human, in vivo, 12 weeks): (16.7%) | Flatulence (GI adverse event), number of patients ([2]; both, human, in vivo, 12 weeks): 6 | Headache (other adverse event), number of patients ([2]; both, human, in vivo, 12 weeks): 2 | Nausea (GI adverse event), incidence ([2]; both, human, in vivo, 12 weeks): (11.1%) | Nausea (GI adverse event), number of patients ([2]; both, human, in vivo, 12 weeks): 4 | time to resolution of mild redness (erythema) ([2]; both, human, in vivo, 12 weeks): ≤ 24 h | Blisters (application site adverse event), incidence [2, 6]: (0.0%) | Blisters (application site adverse event), number of patients [2, 6]: 0 | Dry Skin (application site adverse event), number of patients [2, 6]: 1 | Erythema (application site adverse event), number of patients [2, 6]: 1 | Pruritis (application site adverse event), incidence [2, 6]: (0.0%) | Pruritis (application site adverse event), number of patients [2, 6]: 0

From patent US10806790B1, “Pain therapy cream with deep tissue delivery system” (priority 2013, dated 2020)
